Experimental data from patent US20200316084A1, “METHODS TO TARGET TRANSCRIPTIONAL CONTROL AT SUPER-ENHANCER REGIONS” (TOLERO PHARMACEUTICALS, INC., priority 2014, published 2020).
pIC50: −log10 of the molar value. One block for each compound: values may come before it.

How the values were obtained:
[1] = tested on: c-MYC; test: c-MYC expression by RT-qPCR in MV4-11 cells; format: cell-based; conditions: 2 hours, various concentrations
Description: The c-MYC gene is well known to be regulated by the super-enhancer complex in AML cells. JQ-1, a BET protein inhibitor, and alvocidib, a Cdk inhibitor, were used alone and in combination in order to determine the effect of the drug(s) on c-MYC expression. MV4-11 cells were treated with various concentrations of alvocidib and/or JQ-1 for 2 hours. DMSO-treated controls were also included. Treatment was stopped by lysing the cells and isolating RNA for RT-qPCR analysis. The expression of c-MYC was determined and normalized to the housekeeping gene, HPRT1 and to the DMSO-treated control.

[2] = tested on: MV4-11 cells; test: MV4-11 subcutaneous xenograft, tumor volume by caliper; format: in vivo, athymic Nu/Nu mice; conditions: for effect on tumor volume: 25 mg/kg JQ-1, 2.5 mg/kg alvocidib or both, intraperitoneally once daily for 5 days, total of 3 weeks
From the text: (§1) The AML cell line, MV4-11 is MLL fusion and FLT3-ITD positive. The MLL fusion makes this cell line particularly dependent upon super-enhancer function for driving oncogenesis. MV4-11 cells were implanted subcutaneously in athymic Nu/Nu mice and allowed to establish until tumors reached 100-200 mm^3. JQ-1, a BET protein inhibitor, and alvocidib, a Cdk inhibitor, were used alone and in combination in order to determine the effect of the drug(s) on tumor volume. Animals were stratified into 4 groups and administered one of four treatments: vehicle, 25 mg/kg JQ-1, 2.5 mg/kg alvocidib, or a combination of the two drugs at these doses. The drugs were administered intraperitoneally, once daily for 5 days, for a total of 3 weeks. Tumor volume was measured twice weekly by caliper measurement. […] Weight gain in vehicle and individual drug-treated mice could be attributed to tumor growth. Weight gain in the mice given the combination treatment could be attributed to the overall health and food intake of the mice.

[3] = tested on: MOLM13; test: Cell viability by Cell Titer GLO, MOLM13; format: cell-based; conditions: for pIC50: MOLM13, then 48 h inhibitor
Description: (§2) MOLM13 and MV4-11 are MLL fusion and FLT3-ITD positive, AML cells lines. Both cell lines were treated with 20 nM of alvocidib, a Cdk inhibitor, for 48 hours or DMSO control, followed by the addition of JQ-1, an inhibitor of BET proteins, at various concentrations (10 μM-0.0003 μM) or by the addition of panobinostat, an inhibitor of HDAC, at various concentrations (10 μM-0.0003 μM) for 48 additional hours. At completion, cell viability was measured by Cell Titer GLO reagent. IC50 values were determined for JQ-1 and panobinostat with and without the low dose of alvocidib. Addition of 20 nM alvocidib increased the potency of JQ-1, as shown by an IC50 value of 2-fold lower.

[4] = tested on: MV4-11; test: Cell viability by Cell Titer GLO, MV4-11; format: cell-based; conditions: then 48 h inhibitor
Description: as §2

[5] = Body weight of MV4-11 xenograft mice; format: in vivo, athymic Nu/Nu mice; conditions: throughout the study; 25 mg/kg JQ-1, 2.5 mg/kg alvocidib or both
From the text: as §1

[6] = tested on: MYC; test: MYC expression relative to HPRT in MV4-11 cells; format: cell-based; conditions: alvocidib single agent, two hours
Description: (§3) To determine the MYC and MCL-1 inhibitory activity of alvocidib, MV4-11 cells were treated with alvocidib for two hours and the expression of MYC and MCL-1 relative to HPRT was determined.

[7] = tested on: MCL-1; test: MCL-1 mRNA expression in A549 cells, RT-qPCR; format: cell-based, human; conditions: 0-8 μM, 2 hours
Description: (§5) A549 cells were seeded and treated with alvocidib at concentrations ranging from 0-8 μM for 2 hours. Following the treatment of solid tumor cells, cells were harvested and mRNA was detected using RT-qPCR in the manner described in previous examples.

[8] = tested on: MCL-1 and c-MYC/N-MYC; test: Protein expression by western blotting in SK-N-AS cells; format: cell-based, human; conditions: 300 nM, time course
Description: (§4) A549 cells and SK-N-AS cells (human adrenal neuroblastoma cell line) were seeded and treated with alvocidib at concentrations of 100 nM and 300 nM respectively. Cells were collected at given times and total protein was extracted and detected using western blotting.

[9] = tested on: MCL-1; test: MCL-1 mRNA expression time course in MV4-11 cells, RT-qPCR; format: cell-based; conditions: MV4-11, 100 nM
Description: MV4-11 cells were seeded and treated with alvocidib at a concentration of 100 nM. […] Cells were harvested and detection of mRNA was carried out using RT-qPCR analysis in the manner described in previous examples. Expression of MCL-1 was compared to expression of controls and untreated cells. […] There appears to be no inhibition on expression by the 3 hour time point.

[10] = tested on: super enhancer complex regulated genes; test: Super enhancer complex regulated genes, mRNA expression in A549 cells; format: cell-based, human
Description: A549 cells are adenocarcinomic human alveolar basal epithelial cells used as a type II pulmonary epithelial model (solid tumor). These cells were seeded and treated with alvocidib in identical concentrations and doses. Treatment was stopped by lysing the cells and isolating RNA for RT-qPCR analysis. […] The expression of mRNA was determined and normalized to β-actin and the control.

[11] = tested on: MCL-1; test: MCL-1 mRNA expression in A549 cells, alvocidib with JQ-1, RT-qPCR; format: cell-based, human; conditions: JQ-1 0 nM-50 nM 1 hour, then alvocidib 0 nM-100 nM 2 hours
Description: A549 cells were seeded and treated with alvocidib at concentrations ranging from 0 nM-100 nM in combination with JQ-1 at concentrations ranging from 0 nM-50 nM. Cells were first treated with JQ-1 for 1 hour followed by treatment with alvocidib for 2 hours.

[12] = tested on: MCL-1; test: MCL-1 expression relative to HPRT in MV4-11 cells; format: cell-based; conditions: alvocidib single agent, two hours
Description: as §3

[13] = biological target: CDK9 and Hexim1 (Homo sapiens, UniProt P50750); test: CDK9/Hexim1 association, immunoprecipitation and western blotting in MV4-11 cells; format: cell-based
Chain of CDK9 and Hexim1 (P50750 whole entry): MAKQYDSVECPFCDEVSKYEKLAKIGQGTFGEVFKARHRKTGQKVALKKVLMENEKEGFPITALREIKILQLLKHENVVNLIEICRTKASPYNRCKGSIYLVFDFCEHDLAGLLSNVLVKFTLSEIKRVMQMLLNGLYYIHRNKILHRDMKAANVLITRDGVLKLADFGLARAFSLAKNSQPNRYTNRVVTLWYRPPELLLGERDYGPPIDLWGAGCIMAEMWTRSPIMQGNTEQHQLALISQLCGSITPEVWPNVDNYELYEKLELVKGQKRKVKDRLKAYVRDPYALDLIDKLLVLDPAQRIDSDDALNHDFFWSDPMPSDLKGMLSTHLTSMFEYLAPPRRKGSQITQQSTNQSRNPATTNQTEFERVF
Chain of CDK9 and Hexim1 (O60563 whole entry partner): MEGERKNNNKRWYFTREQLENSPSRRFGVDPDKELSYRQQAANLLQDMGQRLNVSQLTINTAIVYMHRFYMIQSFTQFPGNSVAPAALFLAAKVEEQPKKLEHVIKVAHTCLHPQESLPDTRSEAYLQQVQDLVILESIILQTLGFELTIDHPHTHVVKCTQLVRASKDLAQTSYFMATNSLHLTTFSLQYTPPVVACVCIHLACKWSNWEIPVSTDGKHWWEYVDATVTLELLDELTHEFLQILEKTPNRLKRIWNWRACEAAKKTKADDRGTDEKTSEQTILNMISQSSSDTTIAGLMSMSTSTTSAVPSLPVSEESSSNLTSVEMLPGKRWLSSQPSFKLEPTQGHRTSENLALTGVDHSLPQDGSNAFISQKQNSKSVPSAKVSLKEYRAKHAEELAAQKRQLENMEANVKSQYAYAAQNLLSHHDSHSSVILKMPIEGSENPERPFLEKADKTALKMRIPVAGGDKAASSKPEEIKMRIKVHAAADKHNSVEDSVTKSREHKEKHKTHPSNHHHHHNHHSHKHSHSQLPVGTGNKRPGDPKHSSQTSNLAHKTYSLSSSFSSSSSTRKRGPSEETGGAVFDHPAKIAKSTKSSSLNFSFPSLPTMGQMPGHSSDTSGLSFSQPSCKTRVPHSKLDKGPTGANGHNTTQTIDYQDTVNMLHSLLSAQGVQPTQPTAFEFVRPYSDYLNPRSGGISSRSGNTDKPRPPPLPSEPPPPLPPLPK
Description: MV4-11 cells were seeded and treated with alvocidib in identical concentrations and doses. Cells were collected at given times and subjected to high salt lysis buffer and immunoprecipitation followed by western blotting. […] FIGS. 11A and 11B provide results of a dose escalation study performed according to the above general procedure. […] Representative western blot is provided in FIG. 11A with quantification of the western blot in FIG. 11B.
Representative western blot is provided in FIG. 12A with quantification of the western blot in FIG. 12B.

[14] = tested on: MCL-1 and c-MYC/N-MYC; test: Protein expression by western blotting in A549 cells; format: cell-based, human; conditions: 100 nM, time course
Description: as §4

[15] = tested on: MYC; test: MYC mRNA expression in A549 cells, RT-qPCR; format: cell-based, human; conditions: 0-8 μM, 2 hours
Description: as §5

Structure (SMILES): Cc1sc2c(c1C)C(c1ccc(Cl)cc1)=N[C@@H](CC(=O)OC(C)(C)C)c1nnc(C)n1-2 [JQ-1]
expression of c-MYC normalized to HPRT1 and DMSO control [1]: downregulated | effect on tumor volume [2]: no measurable activity | pIC50 ([3]; 20 nM alvocidib 48 h): 6.68 | pIC50 ([3]; without alvocidib (DMSO 48 h)): 6.28 | fold lower IC50 on addition of 20 nM alvocidib ([3]; MOLM13 and MV4-11): 2 fold | pIC50 ([4]; 20 nM alvocidib 48 h): 6.88 | pIC50 ([4]; without alvocidib (DMSO 48 h)): 6.64 | body weight [5]: comparable

pIC50 ([3]; Homo sapiens, MOLM-13, 48 h, 20 nM alvocidib 48 h): 8.30 | pIC50 ([3]; Homo sapiens, MOLM-13, 48 h, without alvocidib (DMSO 48 h)): 7.80 | pIC50 ([4]; Homo sapiens, MV4-11, 48 h, 20 nM alvocidib 48 h): 8.52 | pIC50 ([4]; Homo sapiens, MV4-11, 48 h, without alvocidib (DMSO 48 h)): 7.74
Structure (SMILES): Cc1[nH]c2ccccc2c1CCNCc1ccc(/C=C/C(=O)NO)cc1 [Panobinostat, panobinostat]

CDK9/Hexim1 association ([13]; 500 nM dose, half hour time point): increased CDK9/Hexim1 association | CDK9/Hexim1 association ([13]; 2 hr treatment, different doses): dose dependent increase
Structure (SMILES): CN1CC[C@H](c2c(O)cc(O)c3c(=O)cc(-c4ccccc4Cl)oc23)[C@H](O)C1 [alvocidib]
MYC expression [6]: completely eliminates | MCL-1 mRNA expression relative to HPRT1 [7]: represses MCL-1 mRNA expression in a dose dependent manner | protein expression of MCL-1 and c-MYC/N-MYC [8]: represses protein expression | expression of c-MYC normalized to HPRT1 and DMSO control [1]: downregulated | MCL-1 mRNA expression ([9]; 30 minute time point): repressed | MCL-1 mRNA expression ([9]; 1 hour post-dose): maximum repression | MCL-1 mRNA expression ([9]; 2 hour time point): repression is reduced | MCL-1 mRNA expression ([9]; 3 hour time point): no inhibition | mRNA expression ([10]; 0.1 μM dose, 2 hour time point): noticeably repressed | expression of mRNA normalized to β-actin and control ([10]; 24 and 48 hour time points): downregulated the expression of mRNA completely | mRNA expression relative to β-actin and vehicle control ([10]; doses of 1 μM up to 8 μM, 2 hours): Complete repression | tumor size relative to vehicle ([2]; 2.5 mg/kg alvocidib i.p., throughout the study): approximately 50% | effect on tumor volume [2]: moderate activity | MCL-1 mRNA expression [11]: represses MCL-1 mRNA expression | reduction of MCL-1 expression [12]: 60% | association of CDK9 and Hexim1 ([13]; 1 mM alvocidib, time course): increases association of CDK9 and Hexim1 in a time dependent manner | protein expression of MCL-1 and c-MYC/N-MYC [14]: represses protein expression | body weight [5]: comparable | MYC mRNA expression relative to HPRT1 [15]: represses MYC mRNA expression in a dose dependent manner
